# “And” between values parts separate entries of the source, which are not always exact repeats. Equal values may be shown once.
# Columns and labels:
# Test in all cases: radiometric filter-binding kinase assay, Kinase HotSpot
# Conditions in all cases: compound 0.5 µM; ATP 10 µM
# AKT2 (human) = AKT2 (human) (UniProt P31751)
# BLK (human) = BLK (human) (UniProt P51451)
# BMX (human) = BMX (human) (UniProt P51813)
# CAMK2G (human) = CAMK2G (human) (UniProt Q13555)
# CDK5 CDK5R1 p35 (human) = CDK5 CDK5R1 p35 (human) (UniProt Q00535+Q15078)
# CDK6 CCND1 (human) = CDK6 CCND1 (human) (UniProt Q00534+P24385)
# CDK9 CCNT1 (human) = CDK9 CCNT1 (human) (UniProt P50750+O60563)
# DDR2 (human) = DDR2 (human) (UniProt Q16832)
# DMPK (human) = DMPK (human) (UniProt Q09013)
# EPHA7 (human) = EPHA7 (human) (UniProt Q15375)
# EPHA7 (human), sequence (Q15375 whole entry, looked up): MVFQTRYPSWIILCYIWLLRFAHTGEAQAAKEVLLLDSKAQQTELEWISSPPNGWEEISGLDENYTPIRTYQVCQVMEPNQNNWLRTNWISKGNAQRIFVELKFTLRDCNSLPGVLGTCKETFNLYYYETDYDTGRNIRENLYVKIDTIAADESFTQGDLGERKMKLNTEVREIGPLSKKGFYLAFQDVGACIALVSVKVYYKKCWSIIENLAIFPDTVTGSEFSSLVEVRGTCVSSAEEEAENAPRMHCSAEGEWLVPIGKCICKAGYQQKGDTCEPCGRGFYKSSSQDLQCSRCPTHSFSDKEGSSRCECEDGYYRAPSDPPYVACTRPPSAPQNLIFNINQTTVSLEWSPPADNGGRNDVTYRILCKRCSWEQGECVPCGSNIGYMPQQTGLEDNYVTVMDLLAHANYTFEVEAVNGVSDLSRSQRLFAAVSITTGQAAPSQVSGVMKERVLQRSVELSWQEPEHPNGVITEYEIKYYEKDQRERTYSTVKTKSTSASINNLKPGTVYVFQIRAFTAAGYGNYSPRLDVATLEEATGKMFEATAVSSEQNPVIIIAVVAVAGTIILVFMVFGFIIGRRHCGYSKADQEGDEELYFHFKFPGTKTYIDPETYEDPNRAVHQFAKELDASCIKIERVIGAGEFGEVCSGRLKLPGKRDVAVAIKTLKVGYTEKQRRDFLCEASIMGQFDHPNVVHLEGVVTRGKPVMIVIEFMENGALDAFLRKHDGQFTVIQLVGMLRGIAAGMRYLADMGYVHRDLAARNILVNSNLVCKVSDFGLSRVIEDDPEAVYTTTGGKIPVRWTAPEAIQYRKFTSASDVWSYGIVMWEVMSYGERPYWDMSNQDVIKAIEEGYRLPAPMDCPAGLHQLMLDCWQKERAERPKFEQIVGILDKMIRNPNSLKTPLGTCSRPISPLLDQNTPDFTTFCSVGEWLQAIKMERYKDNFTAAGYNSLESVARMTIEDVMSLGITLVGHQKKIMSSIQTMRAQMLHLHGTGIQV
# EPHA8 (human) = EPHA8 (human) (UniProt P29322)
# EPHA8 (human), sequence (P29322 whole entry, looked up): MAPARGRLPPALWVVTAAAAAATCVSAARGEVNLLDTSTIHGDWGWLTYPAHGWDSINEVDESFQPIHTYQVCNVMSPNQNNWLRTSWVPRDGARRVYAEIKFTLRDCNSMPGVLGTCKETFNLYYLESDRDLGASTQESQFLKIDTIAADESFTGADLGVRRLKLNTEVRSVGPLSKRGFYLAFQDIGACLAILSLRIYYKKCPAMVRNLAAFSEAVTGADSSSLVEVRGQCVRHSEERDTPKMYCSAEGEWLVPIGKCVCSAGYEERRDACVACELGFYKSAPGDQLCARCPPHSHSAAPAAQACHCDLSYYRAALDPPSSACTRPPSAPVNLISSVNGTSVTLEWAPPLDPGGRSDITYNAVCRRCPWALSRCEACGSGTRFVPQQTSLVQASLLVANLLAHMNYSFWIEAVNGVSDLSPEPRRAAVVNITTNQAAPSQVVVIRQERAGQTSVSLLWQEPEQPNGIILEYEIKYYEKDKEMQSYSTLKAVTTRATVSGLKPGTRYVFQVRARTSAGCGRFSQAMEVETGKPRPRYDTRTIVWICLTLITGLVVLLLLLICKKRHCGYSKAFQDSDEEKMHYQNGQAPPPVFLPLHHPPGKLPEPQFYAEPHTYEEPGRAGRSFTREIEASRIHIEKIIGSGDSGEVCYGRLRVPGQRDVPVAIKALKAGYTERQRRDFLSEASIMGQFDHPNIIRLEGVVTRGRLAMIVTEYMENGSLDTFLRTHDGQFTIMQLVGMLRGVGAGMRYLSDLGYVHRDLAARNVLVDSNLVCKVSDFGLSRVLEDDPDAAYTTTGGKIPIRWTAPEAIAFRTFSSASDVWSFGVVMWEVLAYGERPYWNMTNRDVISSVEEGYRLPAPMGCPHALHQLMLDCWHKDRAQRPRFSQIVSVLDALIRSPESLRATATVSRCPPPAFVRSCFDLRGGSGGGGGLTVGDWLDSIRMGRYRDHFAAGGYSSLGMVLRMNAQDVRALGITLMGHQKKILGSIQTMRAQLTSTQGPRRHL
# EPHB4 (human) = EPHB4 (human) (UniProt P54760)
# FGFR2 (human) = FGFR2 (human) (UniProt P21802)
# FGFR4 (human) = FGFR4 (human) (UniProt P22455)
# GRK5 (human) = GRK5 (human) (UniProt P34947)
# GSK3A (human) = GSK3A (human) (UniProt P49840)
# HIPK1 (human) = HIPK1 (human) (UniProt Q86Z02)
# HIPK3 (human) = HIPK3 (human) (UniProt Q9H422)
# INSR (human) = INSR (human) (UniProt P06213)
# IRAK1 (human) = IRAK1 (human) (UniProt P51617)
# MAPK13 (human) = MAPK13 (human) (UniProt O15264)
# MAPK14 (human) = MAPK14 (human) (UniProt Q16539)
# MAPK14 (human), sequence (Q16539 whole entry, looked up): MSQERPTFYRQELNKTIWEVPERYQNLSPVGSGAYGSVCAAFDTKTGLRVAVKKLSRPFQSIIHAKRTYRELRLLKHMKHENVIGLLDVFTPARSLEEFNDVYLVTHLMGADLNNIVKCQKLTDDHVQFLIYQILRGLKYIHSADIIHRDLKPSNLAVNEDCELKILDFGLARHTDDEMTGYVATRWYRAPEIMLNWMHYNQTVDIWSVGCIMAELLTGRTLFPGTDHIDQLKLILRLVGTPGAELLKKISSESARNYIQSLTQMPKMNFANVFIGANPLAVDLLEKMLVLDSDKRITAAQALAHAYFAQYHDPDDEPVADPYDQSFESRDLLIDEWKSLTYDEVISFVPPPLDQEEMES
# MATK (human) = MATK (human) (UniProt P42679)
# MELK (human) = MELK (human) (UniProt Q14680)
# MYLK (human) = MYLK (human) (UniProt Q15746)
# NLK (human) = NLK (human) (UniProt Q9UBE8)
# PAK2 (human) = PAK2 (human) (UniProt Q13177)
# PAK7 (human) = PAK7 (human) (UniProt Q9P286)
# PLK2 (human) = PLK2 (human) (UniProt Q9NYY3)
# PLK3 (human) = PLK3 (human) (UniProt Q9H4B4)
# PRKACA (human) = PRKACA (human) (UniProt P17612)
# PRKCG (human) = PRKCG (human) (UniProt P05129)
# PRKG1 (human) = PRKG1 (human) (UniProt Q13976)
# PRKG1 (human), sequence (Q13976 whole entry, looked up): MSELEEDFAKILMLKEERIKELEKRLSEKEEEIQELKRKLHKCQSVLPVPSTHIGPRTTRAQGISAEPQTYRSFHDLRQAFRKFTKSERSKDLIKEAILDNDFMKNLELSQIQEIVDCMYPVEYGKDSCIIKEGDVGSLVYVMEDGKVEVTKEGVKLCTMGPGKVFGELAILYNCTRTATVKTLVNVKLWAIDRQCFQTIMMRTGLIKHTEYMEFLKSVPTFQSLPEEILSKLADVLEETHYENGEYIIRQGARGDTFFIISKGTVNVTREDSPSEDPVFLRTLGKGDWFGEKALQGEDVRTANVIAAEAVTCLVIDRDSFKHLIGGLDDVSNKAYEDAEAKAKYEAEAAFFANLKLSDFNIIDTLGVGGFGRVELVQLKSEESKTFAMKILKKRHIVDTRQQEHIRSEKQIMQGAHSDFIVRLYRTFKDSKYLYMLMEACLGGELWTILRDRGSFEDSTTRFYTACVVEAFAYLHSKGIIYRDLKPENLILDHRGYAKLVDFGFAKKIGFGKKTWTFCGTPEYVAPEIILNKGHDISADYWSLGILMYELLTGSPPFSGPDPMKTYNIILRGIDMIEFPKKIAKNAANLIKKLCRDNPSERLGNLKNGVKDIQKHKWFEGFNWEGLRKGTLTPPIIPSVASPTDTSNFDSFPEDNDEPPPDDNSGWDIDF
# SGK2 (human) = SGK2 (human) (UniProt Q9HBY8)
# SGK2 (human), sequence (Q9HBY8 whole entry, looked up): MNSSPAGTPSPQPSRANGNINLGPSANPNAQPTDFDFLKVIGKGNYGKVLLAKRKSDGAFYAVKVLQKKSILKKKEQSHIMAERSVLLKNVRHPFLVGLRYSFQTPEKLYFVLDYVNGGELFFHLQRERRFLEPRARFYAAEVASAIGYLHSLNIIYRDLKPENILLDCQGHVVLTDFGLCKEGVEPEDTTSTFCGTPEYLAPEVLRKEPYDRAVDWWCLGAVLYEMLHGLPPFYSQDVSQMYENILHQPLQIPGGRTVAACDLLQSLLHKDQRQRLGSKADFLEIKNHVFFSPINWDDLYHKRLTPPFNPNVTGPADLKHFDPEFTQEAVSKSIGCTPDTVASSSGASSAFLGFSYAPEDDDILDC
# SLK (human) = SLK (human) (UniProt Q9H2G2)
# SRC (human) = SRC (human) (UniProt P12931)
# SRPK3 (human) = SRPK3 (human) (UniProt Q9UPE1)
# STK25 (human) = STK25 (human) (UniProt O00506)
# STK25 (human), sequence (O00506 whole entry, looked up): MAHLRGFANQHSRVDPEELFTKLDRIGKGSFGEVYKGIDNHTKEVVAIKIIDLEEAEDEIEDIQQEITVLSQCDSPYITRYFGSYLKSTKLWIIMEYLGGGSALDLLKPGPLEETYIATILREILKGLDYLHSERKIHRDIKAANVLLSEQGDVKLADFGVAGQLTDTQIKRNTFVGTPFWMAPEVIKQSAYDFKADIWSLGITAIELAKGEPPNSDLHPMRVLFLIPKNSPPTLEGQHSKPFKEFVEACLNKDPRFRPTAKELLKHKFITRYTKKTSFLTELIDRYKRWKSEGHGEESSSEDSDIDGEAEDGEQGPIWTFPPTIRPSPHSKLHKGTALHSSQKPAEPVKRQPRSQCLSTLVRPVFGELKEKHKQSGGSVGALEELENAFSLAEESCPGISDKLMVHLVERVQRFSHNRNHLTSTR
# STK33 (human) = STK33 (human) (UniProt Q9BYT3)
# TEC (human) = TEC (human) (UniProt P42680)
# TTK (human) = TTK (human) (UniProt P33981)
# CSNK1G1 (human) = CSNK1G1 (human) (UniProt Q9HCP0)
# BLK (human), sequence (P51451 whole entry, looked up): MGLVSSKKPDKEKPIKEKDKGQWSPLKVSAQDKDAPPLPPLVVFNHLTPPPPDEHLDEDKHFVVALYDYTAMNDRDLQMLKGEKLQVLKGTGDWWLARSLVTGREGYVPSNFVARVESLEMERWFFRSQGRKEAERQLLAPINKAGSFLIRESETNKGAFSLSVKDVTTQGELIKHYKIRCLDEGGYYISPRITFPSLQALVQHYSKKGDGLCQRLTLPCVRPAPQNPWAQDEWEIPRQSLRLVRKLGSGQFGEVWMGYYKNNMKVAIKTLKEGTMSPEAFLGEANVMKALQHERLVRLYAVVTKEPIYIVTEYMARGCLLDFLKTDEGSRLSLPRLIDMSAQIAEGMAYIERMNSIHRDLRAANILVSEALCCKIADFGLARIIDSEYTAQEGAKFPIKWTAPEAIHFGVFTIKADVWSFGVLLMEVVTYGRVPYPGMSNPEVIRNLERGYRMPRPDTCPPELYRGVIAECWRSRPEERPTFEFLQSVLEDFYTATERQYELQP
smiles,measurement,setting,value
O=C1NC(=O)C(c2c[nH]c3ccccc23)=C1c1c[nH]c2ccccc12,residual activity,AKT2 (human),102%
same,residual activity,BLK (human),93.7%
same,residual activity,BMX (human),100%
same,residual activity,CAMK2G (human),104%
same,residual activity,CDK5 CDK5R1 p35 (human),79.5%
same,residual activity,CDK6 CCND1 (human),88.7%
same,residual activity,CDK9 CCNT1 (human),89.9%
same,residual activity,DDR2 (human),101%
same,residual activity,DMPK (human),97.3%
same,residual activity,EPHA7 (human),94.3%
same,residual activity,EPHA8 (human),103%
same,residual activity,EPHB4 (human),88.5%
same,residual activity,FGFR2 (human),89.4%
same,residual activity,FGFR4 (human),87.8%
same,residual activity,GRK5 (human),98.1%
same,residual activity,GSK3A (human),27.7%
same,residual activity,HIPK1 (human),102%
same,residual activity,HIPK3 (human),96%
same,residual activity,INSR (human),99.6%
same,residual activity,IRAK1 (human),89.6%
same,residual activity,MAPK13 (human),104%
same,residual activity,MAPK14 (human),109%
same,residual activity,MATK (human),91.1%
same,residual activity,MELK (human),82%
same,residual activity,MYLK (human),74.4%
same,residual activity,NLK (human),103%
same,residual activity,PAK2 (human),97%
same,residual activity,PAK7 (human),104%
same,residual activity,PLK2 (human),97.7%
same,residual activity,PLK3 (human),99.9%
same,residual activity,PRKACA (human),101%
same,residual activity,PRKCG (human),91.4%
same,residual activity,PRKG1 (human),76.8% and 82.4%
same,residual activity,SGK2 (human),90.5%
same,residual activity,SLK (human),45.4%
same,residual activity,SRC (human),93.7%
same,residual activity,SRPK3 (human),90%
same,residual activity,STK25 (human),78.3%
same,residual activity,STK33 (human),97.7%
same,residual activity,TEC (human),145%
same,residual activity,TTK (human),106%
COc1cc2ncc(-c3ccccc3)nc2cc1OC,residual activity,AKT2 (human),86.7%
same,residual activity,BLK (human),103%
same,residual activity,BMX (human),92.2%
same,residual activity,CAMK2G (human),94.5%
same,residual activity,CDK5 CDK5R1 p35 (human),95.8%
same,residual activity,CDK6 CCND1 (human),94.1%
same,residual activity,CDK9 CCNT1 (human),83.2%
same,residual activity,CSNK1G1 (human),90.1%
same,residual activity,DDR2 (human),96.9%
same,residual activity,DMPK (human),103%
same,residual activity,EPHA7 (human),94.7%
same,residual activity,EPHA8 (human),93.1%
same,residual activity,EPHB4 (human),86.4%
same,residual activity,FGFR2 (human),103%
same,residual activity,FGFR4 (human),78.7%
same,residual activity,GRK5 (human),106%
same,residual activity,GSK3A (human),97.9%
same,residual activity,HIPK1 (human),93.4%
same,residual activity,HIPK3 (human),97.7%
same,residual activity,INSR (human),89.1%
same,residual activity,IRAK1 (human),98.4%
same,residual activity,MAPK13 (human),89.6%
same,residual activity,MAPK14 (human),122%
same,residual activity,MATK (human),101%
same,residual activity,MELK (human),88.9%
same,residual activity,MYLK (human),97.4%
same,residual activity,NLK (human),89.3%
same,residual activity,PAK2 (human),85.6%
same,residual activity,PAK7 (human),85.6%
same,residual activity,PLK3 (human),98.3%
same,residual activity,PRKACA (human),99.4%
same,residual activity,PRKCG (human),101%
same,residual activity,PRKG1 (human),77.1% and 96.2%
same,residual activity,SGK2 (human),95.6%
same,residual activity,SLK (human),97.3%
same,residual activity,SRC (human),96.1%
same,residual activity,SRPK3 (human),91.1%
same,residual activity,STK25 (human),90.7%
same,residual activity,STK33 (human),91.7%
same,residual activity,TEC (human),164%
same,residual activity,TTK (human),125%
CC(C)[C@H](CO)Nc1nc(Nc2cc(N)cc(Cl)c2)c2ncn(C(C)C)c2n1,residual activity,AKT2 (human),100%
same,residual activity,BLK (human),79.6%
same,residual activity,BMX (human),81.9%
same,residual activity,CAMK2G (human),104%
same,residual activity,CDK5 CDK5R1 p35 (human),0.133%
same,residual activity,CSNK1G1 (human),26.4%
same,residual activity,DDR2 (human),128%
same,residual activity,DMPK (human),99.7%
same,residual activity,EPHA7 (human),80.2%
same,residual activity,EPHA8 (human),92.5%
same,residual activity,EPHB4 (human),58.4%
same,residual activity,FGFR2 (human),97.3%
same,residual activity,FGFR4 (human),93.4%
same,residual activity,GRK5 (human),101%
same,residual activity,GSK3A (human),101%
same,residual activity,HIPK1 (human),99.2%
same,residual activity,HIPK3 (human),99.4%
same,residual activity,INSR (human),85%
same,residual activity,IRAK1 (human),97.1%
same,residual activity,MAPK13 (human),101%
same,residual activity,MAPK14 (human),98.9%
same,residual activity,MATK (human),111%
same,residual activity,MELK (human),51.5%
same,residual activity,MYLK (human),81.3%
same,residual activity,NLK (human),93.9%
same,residual activity,PAK2 (human),95.5%
same,residual activity,PAK7 (human),44.3%
same,residual activity,PLK2 (human),92%
same,residual activity,PLK3 (human),62.8%
same,residual activity,PRKACA (human),101%
same,residual activity,PRKCG (human),107%
same,residual activity,PRKG1 (human),102% and 104%
same,residual activity,SGK2 (human),121%
same,residual activity,SLK (human),39.8%
same,residual activity,SRC (human),3.75%
same,residual activity,SRPK3 (human),37.7%
same,residual activity,STK25 (human),81.8%
same,residual activity,STK33 (human),56.2%
same,residual activity,TEC (human),130%
same,residual activity,TTK (human),84.5%

# Reference: the kinase profiling compilation of Christmann-Franck et al. (2016)
